Laboratory results as given in publication PMC8805119, “Spatial Distribution and Stability of Cholinesterase Inhibitory Protoberberine Alkaloids from Papaver setiferum” (Journal of Natural Products, 2021).
Where two headings read alike, the source gives them in different places.

Assays:
[1] = C. majus material; cited from earlier work
[2] = Protoberberine oxidation analysis in P. setiferum capsules (oven 40 °C vs freezer -20 °C, LC-MS); assay type: physicochemical, Papaver setiferum; settings: 2 weeks
Method: The alkaloid analysis was based on De Vos et al. (2007).[57]P. setiferum material was collected at four time points: (1) approximately 3 days before flowering, (2) during flowering, (3) approximately 2 weeks after flowering, and (4) approximately 4 weeks after flowering (by which point the flowers had dried and turned brown). At each collection time, a sample of the aerial parts (three separate stems, each with several leaves and a capsule) was collected and stored at −20 °C. The samples were later separated into capsules, leaves, and stems and ground into a powder using a mortar and pestle. One hundred milligrams (±5 mg) of each was transferred into an Eppendorf tube, and each weight was recorded. Cold MeOH (0.1% FA) was added to each in a 1:10 w/v ratio, and the tubes were sonicated for 30 min. The samples were centrifuged for 5 min at 13 000 rpm, and the supernatant was filtered (0.2 μm). A pooled sample was prepared by taking 20 μL from each sample and combining into a single vial. All samples were diluted 1:10 in Milli-Q water prior to LC-MS analysis. The samples were randomly ordered for LC-MS, with the pooled sample run interspaced after every fourth sample. An injection volume of 2 μL was used for each sample. The solvents used were 5% CH3CN (0.1% FA) (solvent A) and 95% CH3CN (0.1% FA) (solvent B). The column used was a Phenomenex Kinetex XB-C18 (2.6 μm, 100 Å, 3.0 × 100 mm) with a linear solvent gradient from 15% to 50% solvent B over 20 min. Alkaloids were identified by comparison of retention times with authentic standards.
From three P. setiferum capsules [taken from time point (1) in the time series analysis], two lots of 100 ± 5 mg of material were weighed into Eppendorf tubes. One set of samples was stored with the lids open in the oven at 40 °C, while the others were stored in the freezer at −20 °C. After 2 weeks, the samples were analyzed by LC-MS, as described above.

[3] = target: T1, horse serum butyrylcholinesterase (hsBChE) (Equus caballus, UniProt P81908); test: biochemical; assay type: biochemical; settings: for Ki: inhibition constant, Dixon plot, substrate 0.125, 0.25, 0.5 mM; for IC50: means ± SEM of three independent measurements; for selectivity for BChE: hsBChE versus AChEs
T1 construct: purchased Sigma-Aldrich; host or cells: horse serum
Method: (§1) Cholinesterase activities were measured by the Ellman method[58] adapted for 96-well microtiter plates, as previously described.[59] The compounds were first screened for the IC50 determination, and for those with IC50 < 200 μM, the inhibitory constants (Ki) were determined. Stock solutions of the tested compounds (5 mg/mL) and of the positive control (1 mg/mL neostigmine bromide, Sigma-Aldrich, St. Louis, MO, USA) were prepared in 100% MeOH. These solutions were added to the wells and gradually diluted in 100 mM potassium phosphate buffer (pH 7.4) to the final volume of 50 μL. Acetylthiocholine chloride and 5,5′-dithiobis-2-nitrobenzoic acid were then dissolved in the same buffer to the respective final concentrations of 1 and 0.5 mM and added (100 μL) to the wells of the microtiter plates. eeAChE, hrAChE, or hsBChE (all Sigma-Aldrich) were dissolved in the same buffer to 0.0075 U/mL. A 50 μL amount of each of the cholinesterases was added to start the reactions, which were followed spectrophotometrically at 405 nm and 25 °C for 5 min using a kinetic microplate reader (Dynex Technologies Inc., Chantilly, VA, USA). Blank reactions without the inhibitors were run in the presence of the appropriate dilution of MeOH in 100 mM potassium phosphate buffer (pH 7.4). The concentrations of the compounds inducing 50% inhibition of enzyme activity (IC50) were determined and expressed as mean values ± SEM. To determine the inhibition constants (Ki), the kinetics were monitored using three different final substrate concentrations (0.125, 0.25, 0.5 mM). Each measurement was repeated at least three times. Data were analyzed using OriginPro software (OriginPro 2020, OriginLab Corporation, Northampton, MA, USA).

[4] = target: T2, human recombinant acetylcholinesterase (hrAChE) (Homo sapiens, UniProt P22303); test: Cholinesterase inhibition assay (Ellman method), hrAChE; assay type: biochemical; settings: for Ki: inhibition constant, Dixon plot, substrate 0.125, 0.25, 0.5 mM
T2 construct: purchased Sigma-Aldrich
Method: as §1

[5] = target: T3, electric eel acetylcholinesterase (eeAChE) (Electrophorus electricus, UniProt O42275); test: Cholinesterase inhibition assay (Ellman method), eeAChE; assay type: biochemical; settings: for Ki: inhibition constant, Dixon plot, substrate 0.125, 0.25, 0.5 mM
T3 construct: purchased Sigma-Aldrich
Method: as §1

[6] = Storage stability of isolated compounds (oxidation); assay type: physicochemical
Method: These findings are of interest as they contrast with observations from the present work. In this study, no special precautions were taken in the isolation of 1 and 2, although the laboratory studies were conducted relatively quickly: only 9 days elapsed from the collection of fresh plants to the acquisition of NMR data (see Supporting Information, Figure S31 for a detailed isolation timeline). […] Comparison of the present methodology with the approaches used by Tsai and Lee[25] and Paulsen et al.[26] has led to the hypothesis that the use of a strong acid (0.1% TFA, pH ∼2.0) during HPLC may be an important component of compound stability. In the present investigation, 0.1% TFA was used in both solvents during HPLC purification, and the same was done by Tsai and Lee. Conversely, Paulsen et al. opted for a three-solvent system of 10 mM (NH4)2SO3, 0.2% triethylamine adjusted with acetic acid to pH 4.0 (solvent A), CH3CN (solvent B), and MeOH (solvent C). Their observation that 13,14-dihydrocoptisine oxidized repeatedly after HPLC leads to the present conclusion that these conditions may have been insufficiently acidic to stabilize the compound. However, this was not tested in the current work. Further, given the varied substitution of the aromatic motifs in these compounds, the role these groups play upon stability cannot be yet ascertained. […]

[7] = means ± SEM of three independent measurements, read-out: hrAChE IC50
[8] = AChEs (eeAChE and hrAChE), compared to 2
[9] = means ± SEM of three independent measurements, read-out: eeAChE IC50

T2 sequence (P22303 32-614): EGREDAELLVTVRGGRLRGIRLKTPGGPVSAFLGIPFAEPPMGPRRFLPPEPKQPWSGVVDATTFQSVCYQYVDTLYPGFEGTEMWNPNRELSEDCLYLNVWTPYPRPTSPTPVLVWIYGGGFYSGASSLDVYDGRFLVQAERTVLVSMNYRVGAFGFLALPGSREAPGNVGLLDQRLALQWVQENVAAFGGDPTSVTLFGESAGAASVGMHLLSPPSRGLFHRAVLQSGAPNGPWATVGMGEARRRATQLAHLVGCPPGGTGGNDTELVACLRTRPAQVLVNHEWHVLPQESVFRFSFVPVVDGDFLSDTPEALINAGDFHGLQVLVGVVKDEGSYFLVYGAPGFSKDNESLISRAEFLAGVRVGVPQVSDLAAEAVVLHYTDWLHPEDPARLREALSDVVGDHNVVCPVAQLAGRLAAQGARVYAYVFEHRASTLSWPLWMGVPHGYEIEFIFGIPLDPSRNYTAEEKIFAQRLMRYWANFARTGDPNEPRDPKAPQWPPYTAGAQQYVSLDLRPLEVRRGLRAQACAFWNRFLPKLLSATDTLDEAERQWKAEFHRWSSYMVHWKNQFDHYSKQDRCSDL
T3 sequence (O42275 24-633): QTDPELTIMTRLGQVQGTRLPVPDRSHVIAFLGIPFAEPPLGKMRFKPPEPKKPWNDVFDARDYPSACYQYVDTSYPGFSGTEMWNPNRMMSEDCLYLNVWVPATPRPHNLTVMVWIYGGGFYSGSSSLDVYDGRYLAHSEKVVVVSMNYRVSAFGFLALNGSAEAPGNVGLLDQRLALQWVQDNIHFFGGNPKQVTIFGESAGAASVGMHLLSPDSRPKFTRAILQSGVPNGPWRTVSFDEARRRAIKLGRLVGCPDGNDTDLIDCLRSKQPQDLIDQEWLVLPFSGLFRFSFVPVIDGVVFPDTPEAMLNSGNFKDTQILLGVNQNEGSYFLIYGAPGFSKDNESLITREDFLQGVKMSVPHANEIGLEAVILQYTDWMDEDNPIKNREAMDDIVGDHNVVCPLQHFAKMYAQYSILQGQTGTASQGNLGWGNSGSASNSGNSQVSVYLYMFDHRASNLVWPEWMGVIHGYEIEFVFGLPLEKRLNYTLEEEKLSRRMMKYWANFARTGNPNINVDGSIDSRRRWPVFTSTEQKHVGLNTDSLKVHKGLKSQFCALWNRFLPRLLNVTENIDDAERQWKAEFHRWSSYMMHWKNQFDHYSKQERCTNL
T1 sequence (P81908 whole entry): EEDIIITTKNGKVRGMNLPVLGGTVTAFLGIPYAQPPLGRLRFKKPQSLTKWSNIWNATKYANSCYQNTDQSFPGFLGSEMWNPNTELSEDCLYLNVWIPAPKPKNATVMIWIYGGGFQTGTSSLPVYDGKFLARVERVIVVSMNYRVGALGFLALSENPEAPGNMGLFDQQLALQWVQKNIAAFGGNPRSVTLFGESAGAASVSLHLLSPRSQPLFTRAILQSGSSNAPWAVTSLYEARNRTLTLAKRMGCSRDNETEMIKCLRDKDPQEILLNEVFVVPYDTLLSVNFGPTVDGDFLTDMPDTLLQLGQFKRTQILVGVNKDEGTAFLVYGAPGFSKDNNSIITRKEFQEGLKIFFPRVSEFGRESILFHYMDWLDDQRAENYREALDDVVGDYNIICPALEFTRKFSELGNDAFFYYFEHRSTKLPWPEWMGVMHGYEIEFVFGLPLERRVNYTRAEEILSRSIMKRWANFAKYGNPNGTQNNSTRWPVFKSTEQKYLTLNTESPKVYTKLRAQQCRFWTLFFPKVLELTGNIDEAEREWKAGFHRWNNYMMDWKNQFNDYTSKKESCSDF

| Compound | change of concentration in oven-dried capsules versus capsules stored at -20 °C [2] | Ki [3] [µM] | IC50 [3] [µM] | Ki [4] [µM] | IC50 [4, 7] [µM] | Ki [5] [µM] | IC50 [5, 9] [µM] | further results |
| --- | --- | --- | --- | --- | --- | --- | --- | --- |
| C1=[N+]2CCc3cc4c(cc3C2Cc2ccc3c(c21)OCO3)OCO4 (stereo not shown) [13,14-dihydrocoptisine] | – | – | – | – | – | – | – | oxidation after oven-drying of plant material [1]: complete oxidation |
| COc1cc2c(c(CO)c1OC)C[C@H]1c3c(cc4c(c3OC)OCO4)CC[N+]1=C2.O=C([O-])C(F)(F)F [Compound 1, 7,8-Didehydromecambridine TFA salt] | minor decrease in concentration | 58.5 | 100 ± 5 | 31 | 66.6 ± 2.4 | 7 | 10.3 ± 1.1 | lower activity against AChEs when compared to 2 [5, 8]: approximately 3 fold; lower inhibition constants when compared to 2 [5, 8]: ~6 fold; oxidation of dried sample on storage ([6]; TFA salt, 0.7 mg, uncapped glass vial, room temperature, approximately 8 weeks): no oxidation to 3 |
| COc1cc2c(c3c1OCOC3)C[C@H]1c3c(cc4c(c3OC)OCO4)CC[N+]1=C2.O=C([O-])C(F)(F)F [Compound 2, 7,8-Didehydroorientalidine TFA salt] | minor decrease in concentration | 47 | 98.5 ± 0.6 | 6.3 | 18.9 ± 1.8 | 1 | 3.4 ± 4.7 | – |
| COc1cc2c[n+]3c(cc2c(CO)c1OC)-c1c(cc2c(c1OC)OCO2)CC3 [Compound 3, alborine] | approximately doubling | 43.7 | 63.1 ± 0.5 | 13.2 | 20 ± 0.9 | 3.6 | 6.8 ± 4.5 | – |
| COc1cc2c(c3c1OCOC3)C[C@H]1c3c(cc4c(c3OC)OCO4)CCN1C2 [Compound 4, orientalidine] | – | 35.5 | 104 ± 4 | 13.7 | 19.9 ± 1.1 | 2 | 5 ± 1 | oxidation on standing in an NMR tube ([6]; 1:1 mixture of 4 and 5 (fraction C.12), four months): complete oxidation of 4 to 5 |
| COc1cc2c[n+]3c(cc2c2c1OCOC2)-c1c(cc2c(c1OC)OCO2)CC3 [Compound 5, 7,8,13,14-dehydroorientalidine] | below the level of detection | – | – | – | – | – | – | – |
| COc1cc2c3c(c1O)-c1c(cccc1OC)C[C@@H]3N(C)CC2 [Compound 6, isothebaine] | – | 0.6 | 2.8 ± 3 | – | – | 68 | 260 ± 1 | selectivity for BChE [3]: good selectivity for BChE; IC50 [4]: > 342 µM |
| COc1cc2c3c(c1O)-c1c(cccc1OC)C[C@@H]3[N+](C)(C)CC2 [Compound 7, N-methylisothebainium] | – | 2.2 | 7.1 ± 2.7 | – | > 342 | – | > 342 | selectivity for BChE [3]: good selectivity for BChE |
| COc1cc(C[C@H]2c3cc(O)c(OC)cc3CC[N+]2(C)C)ccc1O [Compound 8, N-methylorientaline] | – | – | 342 ± 3 | – | > 342 | – | > 342 | – |
| COc1cc2c(cc1O)[C@H](Cc1ccc(OC)c(OC)c1)[N+](C)(C)CC2 [Compound 9, N-methylcodamine] | – | – | 221 ± 1 | – | > 342 | – | > 342 | – |
| COC1=C[C@]23CCN(C)[C@H](Cc4ccc(OC)c(O)c42)C3=CC1=O [Compound 10, salutaridine] | – | – | – | – | – | – | – | IC50 [4]: > 342 µM; IC50 [5]: > 342 µM |
| O=[N+]([O-])CCc1ccc(O[C@@H]2O[C@H](CO[C@@H]3OC[C@@H](O)[C@H](O)[C@H]3O)[C@@H](O)[C@H](O)[C@H]2O)cc1 [Compound 11, thalictricoside] | – | – | > 342 | – | > 342 | – | > 342 | – |
